In the data set the test system is human apolipoprotein B mRNA. As to the kind of experiment: Inhibition of human apolipoprotein B mRNA levels in HepG2 cells, quantitative real-time PCR. The conditions noted are these: for % INHIB (inhibition of human apolipoprotein B mRNA levels): HepG2 cells treated with 150 nM of compound, quantitative real-time PCR; for % inhibition 37 nM / % inhibition 75 nM / % inhibition 150 nM / % inhibition 300 nM: Table 19 dose response, normalized to untreated control. Type of data set: cell-based. The procedure, abridged:
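Apolipoprotein B transcript was quantified by one-step TaqMan RT-PCR, normalized to GAPDH or RiboGreen RNA, and expressed as percent inhibition against an untreated-sample standard curve. HepG2 cells were harvested 16-24 h after oligonucleotide exposure, which was delivered with 3.75 μg/mL Lipofectin over 4-7 h at 80% confluency.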

In the oligonucleotide strings, read from the 5' end, every base follows the letter of its sugar. An asterisk marks phosphorothioate; unmarked linkages are phosphodiester. Other units and linkages are bracketed, terminal groups are in braces. A string of capitals states the bases alone. e = 2'-O-(2-methoxyethyl) (MOE); [5mC] = 5-methylcytosine; d = 2'-deoxy (DNA)

As to “301032 (e[5mC]*eT*eA*e[5mC]*eT*dG*d[5mC]*dA*dA*dG*dG*d[5mC]*dT*dG*dG*e[5mC]*eT*e[5mC]*eA*e[5mC]; antisense) [compound 301032]”, the “% INHIB (inhibition of human apolipoprotein B mRNA levels)” value (averages from two experiments) stood at 63%.
Still for that read-out and setting: in the case of “301033 (eA*e[5mC]*eT*eG*e[5mC]*d[5mC]*dT*dA*d[5mC]*dT*dG*d[5mC]*dA*dA*dG*eG*e[5mC]*eT*eG*eG; antisense) [compound 301033]” it was 77%.
For the substance “301034 (eT*eG*e[5mC]*eT*eT*dA*dT*dA*dG*dT*d[5mC]*dT*dA*d[5mC]*dT*eG*e[5mC]*e[5mC]*eT*eA; antisense) [compound 301034]”, the “% INHIB (inhibition of human apolipoprotein B mRNA levels)” value (averages from two experiments) amounted to 88%. Moreover, under “HepG2 cells”, the “% inhibition 37 nM” value is recorded as 73%, the “% inhibition 75 nM” value was 87%, the “% inhibition 150 nM” value stood at 93% and the “% inhibition 300 nM” value came to 97%.
In the case of “301035 (eT*eT*e[5mC]*eT*eG*d[5mC]*dT*dT*dA*dT*dA*dG*dT*d[5mC]*dT*eA*e[5mC]*eT*eG*e[5mC]; antisense) [compound 301035]”, the “% INHIB (inhibition of human apolipoprotein B mRNA levels)” value (averages from two experiments) is on record as 82%.
Regarding “301036 (eT*eT*eT*eG*eG*dT*dG*d[5mC]*dA*dG*dG*dT*d[5mC]*d[5mC]*dA*eG*eT*eT*e[5mC]*eA; antisense) [compound 301036]”, for the setting “averages from two experiments”, the “% INHIB (inhibition of human apolipoprotein B mRNA levels)” value came to 88%. For the same substance, under “HepG2 cells”, the “% inhibition 37 nM” value is on record as 67%, the “% inhibition 75 nM” value stood at 83%, the “% inhibition 150 nM” value was determined as 92% and the “% inhibition 300 nM” value turned out to be 95%.
Take “301039 (eT*eG*eG*eT*eG*d[5mC]*d[5mC]*dA*dG*d[5mC]*dT*dT*dT*dG*dG*eT*eG*e[5mC]*eA*eG; antisense) [compound 301039]”: under “averages from two experiments”, the “% INHIB (inhibition of human apolipoprotein B mRNA levels)” value was 73%.
Still for that read-out and setting: for “301040 (eG*e[5mC]*e[5mC]*e[5mC]*eT*dG*dG*dT*dG*d[5mC]*d[5mC]*dA*dG*d[5mC]*dT*eT*eT*eG*eG*eT; antisense) [compound 301040]” the value was 74%.
On the same count and under the same terms, in the case of “301041 (eG*eA*eG*eT*eT*d[5mC]*dA*dG*dA*dG*dA*d[5mC]*d[5mC]*dT*dT*e[5mC]*e[5mC]*eG*eA*eG; antisense) [compound 301041]” it was 85%.
Same read-out and setting: for “301042 (eA*eA*eA*eT*eG*d[5mC]*d[5mC]*dA*dT*d[5mC]*d[5mC]*dT*dT*d[5mC]*dT*eG*eA*eG*eT*eT; antisense) [compound 301042]” the value was 81%; for “301043 (eA*eA*eA*eA*eA*dT*dG*d[5mC]*d[5mC]*dA*dT*d[5mC]*d[5mC]*dT*dT*e[5mC]*eT*eG*eA*eG; antisense) [compound 301043]”, 81%.
As to “301044 (eA*eA*eA*eA*eT*dA*dA*d[5mC]*dT*d[5mC]*dA*dG*dA*dT*d[5mC]*e[5mC]*eT*eG*eA*eT; antisense) [compound 301044]”, where the note is “averages from two experiments”, the “% INHIB (inhibition of human apolipoprotein B mRNA levels)” value was 76%.
The same measure, in the same setting: in the case of “301046 (eA*eG*eT*eT*eT*dA*dG*d[5mC]*dA*dA*dA*dA*dT*dA*dA*e[5mC]*eT*e[5mC]*eA*eG; antisense) [compound 301046]” it was 80%; in that of “301047 (eT*e[5mC]*e[5mC]*e[5mC]*e[5mC]*d[5mC]*dA*dA*dG*dT*dT*dT*dA*dG*d[5mC]*eA*eA*eA*eA*eT; antisense) [compound 301047]”, 56%.
Same read-out and setting: for “301048 (eT*eT*e[5mC]*e[5mC]*eT*d[5mC]*d[5mC]*dT*d[5mC]*d[5mC]*d[5mC]*d[5mC]*d[5mC]*dA*dA*eG*eT*eT*eT*eA; antisense) [compound 301048]” the value was 67%.
As to “301049 (eT*e[5mC]*eT*eG*eT*dA*dA*dG*dA*d[5mC]*dA*dG*dG*dA*dG*eA*eA*eA*eG*eA; antisense) [compound 301049]”, the “% INHIB” value (HepG2 cells, human apolipoprotein B mRNA, oligonucleotides targeting genomic sequence SEQ ID NO 334, averages from two experiments) is given as 41%.
